Laboratory results reported in patent EP4361136A1, “COMPOUND FOR THE TREATMENT OF GLIOBLASTOMA” (Universidad De Córdoba, priority 2021, dated 2022).

Assays:
glioblastoma (GBM) cells = assay: In vitro functional assays in glioblastoma cells (proliferation, migration, tumoursphere formation, VEGF secretion, apoptosis, marker expression); format: cell-based, human
Experimental: The proliferation assay (see below) was used to develop a dose-response and IC50 determination of pladienolide-b in glioblastoma cells. The selected doses of pladienolide-b, based on previously reported in vitro studies, were 10^-9 , 10^-7 and 10^-5 M measured 48 h after administration of the SF3B1 inhibitor in glioblastoma cell lines and patient-derived primary glioblastoma cell culture. Least squares regression was used as a method of adjustment to the IC50 determination.
As described above, cell proliferation and migration in response to pladienolide-b treatment were analyzed using the alamar blue assay (3,000 cells/well for cell lines and 10,000 cells/well for primary cell cultures; Biosource International, # BUF012B) and the wound healing technique (150,000 U-118 MG cells/well), respectively. For the migration assay, U-118 MG cells cultured at confluence were serum deprived for 24 h to achieve cell synchronization and then wounded with a sterile 200 µl pipette tip. Wells were replaced and cells were incubated for 6 h and 24 h with medium supplemented without FBS. Wound healing was compared to the area immediately after wounding. […]
The VEGF human ELISA kit (ThermoFisher Scientific, no. KHG0112) was used to quantify VEGF secretion in response to pladienolide-b in glioblastoma cell lines, following the manufacturer's instructions. […]

U-87 MG cells = assay: Preclinical xenograft GBM mouse model, intratumoral injection; format: in vivo, mice
Experimental: A preclinical xenograft mouse model was developed to test pladienolide-b in vivo. Five-week-old ATHYMFoxn1nu/nu mice (n = 6; Janvier-Labs) were subcutaneously injected with 3×10^6 of U-87 MG cells in both flanks [in 100 µl of basal membrane extract (Trevigen, # 3432-010-01)]. Once the tumour was clearly measurable (10 days after cell inoculation), each mouse received an intratumour injection with 50 µl of pladienolide-b (10^-7 M) in one flank and vehicle (1x DPBS, Sigma-Aldrich, # D1408) used as a control in another flank. Tumour growth was monitored every 2 days using a digital caliper. 20 days after injection, mice were sacrificed and each tumour was dissected, fixed, and sectioned for histopathological examination after staining with haematoxylin and eosin. Examination of the number of mitoses, vascular proliferation and necrosis was performed by experienced pathologists. Additional tumour pieces were in liquid nitrogen until RNA extraction using Trizol reagent and protein extraction using SDS-DTT buffer, as previously reported. One individual was assessed by micro-CT imaging using SkyScan1176 Bruker and a software environment to show the location of the tumour in vivo prior to dissection. 2D analysis along with 3D image rendering was performed using VolView 3.4 software (KitWare Inc). […]

CC[C@H](O)[C@@H](C)[C@H]1O[C@@H]1C[C@H](C)/C=C/C=C(\C)[C@H]1OC(=O)C[C@H](O)CC[C@@](C)(O)[C@@H](OC(C)=O)/C=C/[C@@H]1C [pladienolide-b, [(2 S, 3 S, 4 E , 6 S , 7 R , 10 R ) -7,10-dihydroxy-2 - [(2 E , 4 E, 6 S ) -7 - [(2 R , 3 R ) -3 - [(2 R , 3 S ) -3-hydroxypentan-2-yl]oxiran-2-yl] -6-methylhepta-2,4-dien-2-yl] -3,7-dimethyl-12-oxo-1-oxazacyclododec-4-en-6-yl] acetate]
critical functional parameters of aggressiveness and key markers of tumour development/progression/aggressiveness (glioblastoma (GBM) cells; 10^-7 M, compared to control conditions, U-87 MG, U-118 MG and patient-derived primary GBM cells): decreases
several functional parameters in vitro (glioblastoma (GBM) cells; summary statement (Figure 4)): reduced
glioblastoma (GBM) progression and vascularization (U-87 MG cells; U-87 MG xenograft, intratumour injection of 50 µl (10^-7 M) versus vehicle-treated flank): alters
several functional parameters in vivo (U-87 MG cells; in vivo, summary statement (Figure 5)): reduced
